Laboratory results from patent publication US4061637A, “Certain 4-aryl-5-(4-phenylpiperazino)alkyl-4-thiazolin-2-ones” (priority 1974, dated 1977).
In brackets after ≈: the same amount, converted by molar mass. Counter-ions that a name gives are not always drawn.

Assays:
[1] = Acute toxicity rat LD50 iv; details: in vivo
[2] = Inhibition of spontaneous motility in the mouse; assay type: in vivo; details: mouse; for ED50: po, 0.5 h, os, 30 minutes after treatment, read-out: Spontaneous motility inhibition mouse ED50
Description: This is evaluated by an actophotometric method, which consists of placing the mice, 30 minutes after oral treatment with the drug or the carrier, in a cage provided with a photoelectric cell counter and counting the number of times the photoelectric cell is passed during a 10 minute stay.

nor-adrenalin = assay: Antagonism towards a lethal dose of nor-adrenalin in the rat (α-adrenolytic activity); assay type: in vivo
Description: Antagonism towards a lethal dose of nor-adrenalin in the rat
The animals are treated with a dose of nor-adrenalin (0.5 mg/kg) which is 100% lethal in animals. The activity is calculated by the number of animals protected from death by prior administration of the drug under examination one hour before the agonist. Where possible the ED50 was calculated.

[3] = Ulcers by constriction (stress) in the rat; assay type: in vivo; details: 4 h, rat; for responders at 10 mg/kg / inhibition in vivo at 10 mg/kg: 10 mg/kg ip
Description: The method described by Rossi and colleagues (Compt. Rend. Soc. Biol., 150, 2124, 1956) was followed in which the formation of gastric ulcers is induced by immobilising the animal, in a state of fast for 48 hours, in a net for a period of 4 hours.
The protection given by treatment with the drug under examination before the beginning of the constriction period is evaluated by counting both the ulcers and the number of subjects without ulcers.

[4] = Fibrillation induced by CaCl2 of the rat anaesthetised with urethane (anti-arrhythmic activity); assay type: in vivo; details: for selectivity ratio: in vivo, LD50 rat iv / ED50 CaCl2, read-out: I.T. (1), therapeutic index from the ratio LD50 rat iv/ED50; for ED50: rat anaesthetised with urethane, iv
Description: Fibrillation induced by CaCl2 of the rat anaesthetised with urethane (1 g/kg ip)
The method described by Malinow and colleagues (Rev. Argent. Cardiol., 19, 120, 1952) was followed, which consists of inducing cardiac fibrillation by administering intravenously 2 ml/kg of an 8% solution of CaCl2 in rats pretreated intravenously with scalar doses of anti-arrhythmics. The ED50 was calculated for each active drug.

[5] = Arrhythmias induced by electrical stimulation of the isolated rabbit atrium (anti-arrhythmic activity); details: TD / ED30, isolated rabbit atrium; read-out: I.T. (2), therapeutic index from the ratio TD/ED30
Description: (§1) The ED30 in the presence of scalar concentrations of anti-arrhythmic substances was measured.

isolated rabbit atrium = assay: as above; details: for EC30: Oryctolagus cuniculus, read-out: anti-arrhythmic activity, Electrical stimulation in isolated rabbit atrium ED30
Description: as §1

[6] = system: Rabbit platelet aggregation; assay: Rabbit platelet aggregation in vitro; assay type: cell-based; details: Oryctolagus cuniculus, rabbit PRP, aggregation by sodium adenosine diphosphate, read-out: Platelet anti-aggregation activity, rabbit in vitro ED50
Description: Rabbit platelet aggregation in vitro The method of […] (Pharmacology, 7, 115, 1972) was followed. Blood taken from conscious rabbits is centrifuged in the presence of sodium citrate (3.8%) at 350 g. for 10 minutes, so as to separate the plasma rich in platelets (PRP) from the rest. The aggregation of the platelets is carried out by bringing the PRP into contact with adequate doses of sodium adenosine diphosphate in the presence of a possible inhibitor or its carrier. The measurement of aggregation is made continuously by a turbidimetric method.

[7] = Acute toxicity under LD50 mouse; details: in vivo, ip
[8] = Pinching the tail of the mouse (systemic analgesic activity); assay type: in vivo; details: po, 0.5 h, mouse, 30 minutes; for inhibition in vivo at 26 mg/kg: 26 mg/kg os
Description: To evaluate the analgesic activity, the method described by Bianchi and colleagues (Brit. J. Pharmacol., 9, 280, 1954) was followed which consists of applying an arterial pincer to the base of the tail in animals treated orally 30 minutes previously with the drug under examination, observing that the control animals react to the pain by squealing.

[9] = Antagonism towards electric shock convulsions in the mouse; assay type: in vivo; details: po, 0.5 h, mouse, 35 volt, read-out: Anti-convulsion activity, electric shock, mouse, % att.; for inhibition in vivo at 26 mg/kg: 26 mg/kg os
Description: This is evaluated by observing the protection given by pretreatment with the drug (30 minutes) against tonic convulsions obtained by applying a 35 volt current to the eyeballs.

[10] = Carrageen oedema in the conscious rat (anti-inflammatory activity); assay type: in vivo
Description: Anti-inflammatory activity was evaluated by the method of Winter and colleagues (Proc. Soc. Exp. Biol., 111, 544, 1962) by endoperitoneally injecting the product under examination one hour before inducing oedema by injecting 0.05 ml. of a 1% suspension of carrageen (intradermally into the plantar portion of a rear paw).
The difference between the volume of the paw determined plethysmographically one hour before and three hours after the carrageen gives a quantitative estimate of the activity of the product tested. Where possible, the ED30 was calculated.

[11] = Cataleptic activity in the mouse; assay type: in vivo; details: po; mouse, os; read-out: Cataleptic activity mouse ED50
[12] = read-out: Anti-ulcer activity, ulcers by stress in the rat, Protected rats %
[13] = read-out: Anti-ulcer activity, ulcers by stress in the rat, Reduction in ulcers %

Structure (SMILES) | LD50 [1] [mg/kg] | ED50 [2] [mg/kg] | responders at 10 mg/kg [3, 12] [%] | inhibition in vivo at 10 mg/kg [3, 13] [%] | selectivity ratio [4] | ED50 [4] [mg/kg] | selectivity ratio [5] | EC30 (isolated rabbit atrium) [µg/mL] | TD (dose which abolishes the spontaneous contraction of the atrium) (isolated rabbit atrium; rabbit) [µg/mL] | IC50 [6] [µg/mL] | LD50 [7] [mg/kg] | inhibition in vivo at 26 mg/kg [8] [%] | inhibition in vivo at 26 mg/kg [9] [%] | further results
Cl.O=c1[nH]c(-c2ccc(F)cc2)c(CCN2CCCCC2)s1 [LR 617, 4-p-fluorophenyl-5-β-piperidinoethyl-4-thiazolin-2-one hydrochloride] | 62 | 19.6 | 10 | 17 | 15 | 4 | 69 | 4.3 | 300 | 800 | 100 |  |  | α-adrenolytic activity lethal NA rat, percentage activity (ED50 lacking) (nor-adrenalin; 5 mg/kg os): 0%
CCN(CC)CCc1sc(=O)[nH]c1-c1ccc(F)cc1 [LR 602, 4-p-fluorophenyl-5-β-diethylaminoethyl-4-thiazolin-2-one] | 84 | 30 | 50 | 65 | 24 | 3.5 | 30 | 10 (≈ 34 µM) | 300 | 800 (≈ 2720 µM) | 125 | 30 | 0 | α-adrenolytic activity lethal NA rat, percentage activity (ED50 lacking) (nor-adrenalin; 7 mg/kg os): 0%
COc1ccc(-c2[nH]c(=O)sc2CCN(C)CCc2ccccc2)cc1 [LR 620, 4-p-methoxyphenyl-5-β-(N-methylphenylethylamino)-ethyl-4-thiazolin-2-one maleate] | 24 |  | 0 | 0 | 12 | 2 | 30 | 1 |  | 650 | 100 | 0 | 20 | Spontaneous motility inhibition mouse, percentage activity (ED50 lacking) ([2]; 26 mg/kg os): 0%; ED30 ([10]; 1 h, ip, one hour before carrageen, read-out: Anti-inflammatory activity carrageenin oedema rat ED30): 36 mg/kg; ED50 (nor-adrenalin; Rattus norvegicus, po, 1 h, read-out: α-adrenolytic activity lethal NA rat ED50): 5 mg/kg; TD (dose which abolishes the spontaneous contraction of the atrium) (isolated rabbit atrium; isolated rabbit atrium): 30 µg/mL
Cl.O=c1[nH]c(-c2ccc(F)cc2)c(CCN2CCOCC2)s1 [LR 618, 4-p-fluorophenyl-5-β-morpholinoethyl-4-thiazolin-2-one hydrochloride] | 130 | 60 |  |  | 9 | 15 | 8.5 | 35.4 | 300 | 650 | 250 |  |  | ED50 [11]: 60 mg/kg; inhibition in vivo at 60 mg/kg ([8]; 60 mg/kg os, read-out: Systemic analgesic activity, tail pinching in mouse, %): 40%; Anti-inflammatory activity carrageenin oedema rat, percentage activity (ED30 lacking) ([10]; 60 mg/kg ip): 9.8%; α-adrenolytic activity lethal NA rat, percentage activity (ED50 lacking) (nor-adrenalin; 15 mg/kg os): 0%; inhibition in vivo at 60 mg/kg ([9]; 60 mg/kg os): 10%; responders at 30 mg/kg ([3]; 30 mg/kg ip, read-out: Anti-ulcer activity, ulcers by stress in the rat, Protected rats %): 50%; inhibition in vivo at 30 mg/kg ([3]; 30 mg/kg ip, read-out: Anti-ulcer activity, ulcers by stress in the rat, Reduction in ulcers %): 71%
